Experimental findings from patent publication US12403121B2, “Anticancer rocaglamide derivatives” (priority 2018, dated 2025) are described below.

Bounds are passed on as bounds.

The nature of one data set: in vivo. Also noted: species or system mice. Conditions: mouse. The procedure: Mice were administered with a 5 mg/kg dose of Roc by intravenous (IV) or intraperitoneal injection (IP) or by oral gavage (PO). Blood samples were collected before and at multiple indicated time-points after dosing (n=3). Plasma samples were obtained by centrifugation and stored at −80° C. To measure plasma concentrations of Roc, a sensitive liquid chromatography coupled with tandem mass spectrometry detection (LC/MS-MS) method was developed. The reference compounds Roc (NSC326408) and pipernyl rocaglate (NSC784086) were provided by the NCI Developmental Therapeutics Program with pipernyl rocaglate used as the internal standard for quantitation. Plasma samples were processed by taking 100 μl of plasma and adding 300 μl of methanol containing 0.05 μM of internal standard. The samples were vortexed and centrifuged at 10,000×g for 10 min. The supernatant was collected and evaporated to dryness. Dried samples were reconstituted in 100 μl of 1:1 water:acetonitrile and centrifuges at 10,000×g for 3 min, followed by injecting 10 μl into an HPLC. Compounds of interest were separated on a Kinetex EVO C18 column (150×2.1 mm) with a flow rate of 0.25 ml/min. Mobile phase consisted of 80% ammonium formate buffer (1 g/L) and 20% acetonitrile at the start of the run, and a linear gradient to 10% ammonium formate/90% acetonitrile was applied over 14 min. Roc and the internal standard were identified by MS/MS using a Thema) Vantage TSQ run in positive ion mode. The transitions used were m/z 506 to m/z 352 (Roc) and m/z 570 to m/z 450 (internal standard). […] Samples found to be above 2.5 μM of Roc were reanalyzed after dilution with blank plasma. Absolute recoveries of Roc from plasma were to be >98%. AUC estimations were made manually using the trapezoidal method of integration.
To examine the oral bioavailability, PK studies were conducted to compare mice that had been dosed with Roc at 5 mg/kg via the IV, IP, or PO route, followed by measuring Roc concentrations in blood samples collected at various times post dosing. Two separate studies with three mice at each time point for each route of dosing were conducted. […] Areas under the plasma concentration-time curves (AUC0-7h) produced 245 μM min of exposure in the IV route and 142 μM min of exposure in the PO route. The concentrations of Roc appeared to more slowly decline in the plasma over 24 h (T1/2=2.4 hour) with the PO route compared to those dosed by IV route (T1/2=˜1.5 hour).

Another data set relates to Ewing sarcoma PDX. Put plainly: Ewing sarcoma PDX model (NCH-EWS-2). The data set is classed as in vivo, NSG mouse. The conditions noted are these: 3 mg/kg IP every other day, four weeks, vs vehicle. The text has this:
To generate PDX models, the Nationwide Children's Hospital Institutional Review Board approved the Human Subjects Protocol for the acquisition of surgically-removed tumor specimens from patients and informed patient consents were obtained. Shortly after resection, fresh tumor tissues with their histological types confirmed by a specialized pathologist were placed in Dulbecco's-modified Eagle (DME) medium (Invitrogen) and brought to the research laboratory. A piece of tumor fragment was implanted subcutaneously on the dorsal right flank area in an eight-to-ten week-old immunodeficient mouse under anesthesia. Tumors were allowed to grow until established, at which time the established PDX tumors were repeatedly passed from one animal to the next or cryopreserved. For Roc treatment, actively-growing PDXs for a Ewing sarcoma (NCH-EWS-2), an osteosarcoma (NCH—OS-7), and an alveolar rhabdomyosarcoma (NCH-ARMS-2) were excised and cut into 5-mm pieces. Each tumor piece was re-implanted into an NSG mouse and tumor growth was monitored. Once noted, the tumor sizes in the axial plane at its greatest dimension (L) and the orthogonal short dimension (S) were measured twice weekly using a Fowler Ultra-Cal Electronic Caliper. Approximated tumor volumes were calculated using the formula V=(L×S^2)/2. […]

The subject of data set [1] is panel of MPNST, schwannoma, and meningioma cell lines. In words: Side-by-side growth inhibition comparison with silvestrol in a cell line panel. The data set is classed as cell-based. Conditions: panel of MPNST, schwannoma, meningioma cell lines. The procedure: (§1) Actively-growing cells were seeded in 96-well plates (Sarstedt) at 2,000 cells/well for Ben-Men-1 and RD cells, 30,000 cells/well for 697 and 697-R cells, and 4,000 cells/well for all other cell lines. The following day, cells were treated with various concentrations of each compound or and 0.05% of DMSO as the control for six days for MG-63 cells or three days for all remaining cell lines. Cell proliferation was assessed using resazurin assays and the IC50 value calculated. Cell cycle analysis was performed accordingly. Burns et al., Cancer Res., 73:792-803 (2013).
To search for compounds with better drug-like properties, the inventors conducted a side-by-side comparison of ten rocaglates lacking the dioxanyl ring with silvestrol for growth-inhibitory activity in a panel of MPNST, schwannoma, and meningioma cell lines, which they had previously shown to be sensitive to the antiproliferative action of silvestrol. […] The average IC50 value of each rocaglate was determined by 3-day resazurin proliferation assays. […] Further structure and activity comparison discerned some positions on the cyclopenta[b]benzofuran scaffold that affected the antiproliferative activity of rocaglates.

Data set [2] deals with STS26T and ST8814 MPNST cells. In words: Flow cytometry cell cycle analysis. The conditions noted are these: one- or two-IC50 doses, three days. Format: cell-based, human. The procedure: as §1
Data set [3] deals with A673, TC32, 143B, MG-63, Saos2, OS17 and RD sarcoma cell lines. Put plainly: Cell proliferation in Ewing sarcoma, osteosarcoma and rhabdomyosarcoma cell lines. The data set is classed as cell-based. Conditions: two Ewing sarcoma, four osteosarcoma, one rhabdomyosarcoma cell lines. The procedure:
The human MPNST cell lines, ST8814, STS26T, S462, T265, and luciferase-expressing ST8814-Luc, the human NF2-deficient meningioma cell line Ben-Men-1, the NJ2 mouse schwannoma cell line Sch10545, and primary human Schwann cells were propagated as previously described. Oblinger et al., Neuro-Oncol., 18:1265-1277 (2016). The Ewing sarcoma cell line A673 and the osteosarcoma cell lines, 143B and MG-63, were grown in Dulbecco's Modified Eagle's (DME) medium (Millipore-Sigma) supplemented with 10% fetal bovine serum (FBS; Atlanta Biological). The silvestrol-sensitive 697 and silvestrol-resistant 697-R pre-B acute lymphoblastic leukemia cells (Gupta et al., AAPS J., 13:357-364 (2011)), the Ewing sarcoma cell line TC32, the osteosarcoma cell lines, Saos2 and OS17, and the rhabdomyosarcoma cell line RD were cultivated in RPMI 1640 medium (Millipore-Sigma) plus 10% FBS.
as §1
Since MPNSTs comprise only ˜2% of all sarcomas (Farid et al. Oncologist, 19:193-201 (2014)), the inventors expanded their testing of Roc and DDR to three other more prevalent sarcomas particularly in children and young adults: Ewing sarcoma, osteosarcoma, and rhabdomyosarcoma.

On to `COc1ccc([C@@]23Oc4cc(OC)cc(OC)c4[C@]2(O)[C@H](O)[C@H](C(=O)N(C)C)[C@H]3c2ccccc2)cc1` [Roc, rocaglamide], for which, in the data set “in vivo” (iv, 5 mg/kg), the “Area under the plasma concentration-time curve (AUC0-7h)” value amounted to 245 µM·min and the half-life was ~1.5 h. The “improvement of oral bioavailability over silvestrol” value in the data set “in vivo” (po) is given as > 25 fold. In “in vivo” (po, 5 mg/kg), the “Area under the plasma concentration-time curve (AUC0-7h)” value was found to be 142 µM·min, the Cmax is ~800 nM, the T1/2 amounted to 2.4 h and the bioavailability is ~50%. For the same compound, the tumor growth inhibition in the data set with Ewing sarcoma PDX was ~90%. Moreover, the “IC50 values relative to silvestrol” value in data set [1] was “slightly higher than silvestrol”. Further, the G2/M fraction entry in data set [2] is on record as “marked increase in the GVM fraction”. The “activity against sarcoma cell lines” value in data set [3] is listed as “highly active”.
